# Assay results as given in US10463632B2, “Method for treating a neurovascular complication of diabetes mellitus” (KING SAUD UNIVERSITY, priority 2016, dated 2019).
# Columns and labels:
# Assay type in all cases: in vivo, Sprague Dawley rats
# [1] = test system: Streptozotocin (STZ)-induced diabetic rats; assay: Kidney and liver function tests (colorimetric serum biochemistry) in STZ-induced diabetic rats
# Protocol: (§1) Healthy Sprague Dawley rats (150-200 g) were used for the trials. Animals were issued from Central Animal House Facility of the College of Pharmacy, King Saud University and were kept in standard plastic animal cages in groups of 6 animals each with 12 hours light and dark cycle at 25±2° C. The rats were fed on standard rat chow and provided water ad libitum. The animals were acclimatized to laboratory conditions for a week prior to experiments. Diabetes was induced in overnight fasted rats by administration of Streptozotocin (STZ) at dose of 55 mg/kg intraperitoneally in citric acid buffer (pH 4.5). After one hour of STZ administration, the animals were allowed to feed ad libitum. The animals were kept under observation and fasting blood glucose levels were estimated […] 72 hours of STZ treatment. Animals showing blood glucose levels >350 mg/dl were considered as diabetic and were used for further trials. Diabetic rats were divided into two groups (10 rats per group) at random. Group I served as diabetic control. Group II were administered thymoquinone (2 mg/kg intraperitoneally) in alternate days for three weeks. Healthy rats were also kept as normal controls. Relevant biochemical parameters including serum creatinine, uric acid, alanine aminotransferase (ALT), aspartate aminotransferase (AST), alkaline phosphatase and bilirubin were assessed using colorimetric methods.
# [2] = test system: brain derived neurotrophic factor (BDNF); assay: Western blot of retinal BDNF expression in diabetic rats; conditions: diabetic rat retinas, thymoquinone 2 mg/kg i.p. alternate days, three weeks; FIG. 1A
# Protocol: (§2) Healthy Sprague Dawley rats (150-200 g) were used for the trials. Animals were issued from Central Animal House Facility of the College of Pharmacy, King Saud University and were kept in standard plastic animal cages in groups of 6 animals each with 12 hours light and dark cycle at 25±2° C. The rats were fed on standard rat chow and provided water ad libitum. The animals were acclimatized to laboratory conditions for a week prior to experiments. Diabetes was induced in overnight fasted rats by administration of Streptozotocin (STZ) at dose of 55 mg/kg intraperitoneally in citric acid buffer (pH 4.5). After one hour of STZ administration, the animals were allowed to feed ad libitum. […] Relevant biochemical parameters including serum creatinine, uric acid, alanine aminotransferase (ALT), aspartate aminotransferase (AST), alkaline phosphatase and bilirubin were assessed using colorimetric methods. […] After incubations with secondary antibodies, membranes were washed four times with TBS-T (5 min each) and the immunoreactivity of bands was visualized on a high-performance chemiluminescence machine by using enhanced chemiluminescence plus Luminol and quantified by densitometric analysis using image processing and analysis in GeneTools. As a control, the blots were stripped and detected with a mouse monoclonal anti-β-actin antibody (1:2000). […]
# cleaved caspase-3 = assay: Western blot of retinal cleaved caspase-3 in diabetic rats; conditions: diabetic rat retinas, thymoquinone 2 mg/kg i.p. alternate days, three weeks; FIG. 1D
# Protocol: as §2
# [3] = test system: tyrosine hydroxylase (TH); assay: Western blot of retinal tyrosine hydroxylase expression in diabetic rats; conditions: diabetic rat retinas, thymoquinone 2 mg/kg i.p. alternate days, three weeks; FIG. 1B
# Protocol: as §2
# [4] = test system: Blood-Retinal Barrier in STZ-Induced Diabetic Rats; assay: Measurement of Blood Retinal Barrier (BRB) breakdown with FITC-conjugated dextran; conditions: thymoquinone 2 mg/kg on alternate days, compared with diabetic retinas, FIG. 3
# Protocol: Healthy Sprague Dawley rats (150-200 g) were used for the trials. Animals were issued from Central Animal House Facility of the College of Pharmacy, King Saud University and were kept in standard plastic animal cages in groups of 6 animals each with 12 hours light and dark cycle at 25±2° C. The rats were fed on standard rat chow and provided water ad libitum. The animals were acclimatized to laboratory conditions for a week prior to experiments. Diabetes was induced in overnight fasted rats by administration of Streptozotocin (STZ) at dose of 55 mg/kg intraperitoneally in citric acid buffer (pH 4.5). After one hour of STZ administration, the animals were allowed to feed ad libitum. […] Relevant biochemical parameters including serum creatinine, uric acid, alanine aminotransferase (ALT), aspartate aminotransferase (AST), alkaline phosphatase and bilirubin were assessed using colorimetric methods. Rat retinas were analyzed for Blood Retinal Barrier (BRB) breakdown after 3 weeks of thymoquinone dosing using fluorescein isothiocyanate (FITC)-conjugated dextran as previously described in the prior art. […] Fluorescence was measured using a Spectra Max Gemini-XPS with excitation and emission wavelengths of 485 nm and 538 nm, respectively, with PBS as a blank. Blood retinal barrier breakdown was calculated using the following equation (1) with the results being expressed in μL g^−1 hr^−1. […]
# [5] = test system: nerve growth factor receptor (NGFR); assay: Western blot of retinal NGFR expression in diabetic rats; conditions: diabetic rat retinas, thymoquinone 2 mg/kg i.p. alternate days, three weeks; FIG. 1C
# Protocol: as §2
# [6] = test system: Streptozotocin (STZ)-induced diabetic rats; assay: Blood glucose concentration in STZ-induced diabetic rats with thymoquinone administration; conditions: TQ 2 mg/Kg intraperitoneally on alternate days
# Protocol: as §1
# [7] = test system: reactive oxygen species (ROS); assay: Reactive Oxygen Species (ROS) measurement in retinal tissue homogenates (DCF fluorescence); conditions: retinas of diabetic animals treated with thymoquinone; FIG. 2
# Protocol: as §1, with “Animals showing blood glucose levels >350 mg/dl were considered as diabetic and were used for further trials. Diabetic rats were divided into two groups (10 rats per group) at random. Group I served as diabetic control. Group II were administered thymoquinone (2 mg/kg intraperitoneally) in alternate days for three weeks. Healthy rats were also kept as normal controls.” left out
# Reactive Oxygen Species (ROS) generation was measured in retinal tissue homogenates using a 2′,7′-dichlorofluorescein-diacetate (DCHFDA) as is known in the art. […] Fluorescence was measured using a SpectraMax Gemini-XPS every 15 min for 1 hour with excitation and emission wavelengths of 488 nm and 525 nm, respectively.
# [8] = diabetic rats treated with TQ 2 mg/kg i.p. on alternate days for three weeks
structure (smiles),measurement,setting,value
"CC1=CC(=O)C(C(C)C)=CC1=O [thymoquinone, 2-Isopropyl-5-methylbenzo-1,4-quinone]",kidney and liver function tests versus untreated diabetic animals,[1]; diabetic rats that received thymoquinone,more normal
same,ALKALINE Phos,[1]; [8],179.08 ± 4.51 U/l
same,ALT,[1]; [8],134.43 ± 5.21 U/l
same,AST,[1]; [8],138.48 ± 2.94 U/l
same,Bilirubin,[1]; [8],3.23 ± 0.04 mg/dL
same,Creatinine,[1]; [8],0.62 ± 0.05 mg/dL
same,Uric acid,[1]; [8],4.99 ± 0.07 mg/dL
same,retinal BDNF expression (diabetes-induced down-regulation of about 65%),[2],normalized
same,retinal cleaved caspase-3 (diabetes-induced up-regulation of about 52%),cleaved caspase-3,normalized
same,retinal TH levels (diabetes-induced decrease of about 32%),[3],normalized
same,effect of diabetes on BRB breakdown (retinal vascular permeability),[4],significantly attenuated
same,retinal NGFR expression (diabetes-induced increase of about 75%),[5],normalized
same,Glucose Concentration,[6]; after 7 days of TQ treatment,580.58 ± 2.40 mg/dL
same,Glucose Concentration,[6]; after 14 days of TQ treatment,559.55 ± 1.29 mg/dL
same,Glucose Concentration,[6]; after 21 days of TQ treatment,495.10 ± 5.71 mg/dL
same,ROS generation (DCF retinal levels),[7],significantly attenuated
